Reference: patent publication US10975051B2, “Phenylsulfonamido-benzofuran derivatives and uses thereof in the treatment of proliferative diseases” (Memorial Sloan-Kettering Cancer Center, priority 2015, dated 2021)

Columns and labels:
[1] = target: BCL-2 (Homo sapiens, UniProt P10415); conditions: Oltersdorf et al., Nature, 2005; cited from earlier work
[2] = target: BCL-XL (Homo sapiens, UniProt Q07817); conditions: Oltersdorf et al., Nature, 2005; cited from earlier work
[3] = target: MCL-1 (Homo sapiens, UniProt Q07820); conditions: background statement; cited from earlier work
[4] = target: T1, BCL-W (Homo sapiens, UniProt Q92843); conditions: Oltersdorf et al., Nature, 2005; cited from earlier work
T1 sequence (Q92843 1-193): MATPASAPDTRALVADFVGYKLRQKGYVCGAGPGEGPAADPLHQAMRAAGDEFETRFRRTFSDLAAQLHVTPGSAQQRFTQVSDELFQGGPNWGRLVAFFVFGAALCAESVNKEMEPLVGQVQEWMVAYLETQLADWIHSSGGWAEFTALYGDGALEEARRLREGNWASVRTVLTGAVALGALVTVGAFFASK

[5] = system: DMS53, SW1417, and H82 cell lines; assay: apoptotic induction in DMS53, SW1417 and H82 cell lines (selectively addicted to BCL-2, BCL-XL and MCL-1); type: cell-based; conditions: H82 versus DMS53 and SW1417, FIG. 2B
[6] = system: MCL-1-addicted cancer cell-line H82; assay: apoptosis induction in MCL-1-addicted cancer cell line H82; type: cell-based; conditions: H82 cells, FIG. 1B
[7] = system: MCL-1-addicted cancer cell-line, H23; assay: apoptosis induction in MCL-1-addicted cancer cell line H23; type: cell-based; conditions: H23 cells; for induction of apoptosis: FIG. 1B

Chain of BCL-2 (P10415 whole entry, species assumed): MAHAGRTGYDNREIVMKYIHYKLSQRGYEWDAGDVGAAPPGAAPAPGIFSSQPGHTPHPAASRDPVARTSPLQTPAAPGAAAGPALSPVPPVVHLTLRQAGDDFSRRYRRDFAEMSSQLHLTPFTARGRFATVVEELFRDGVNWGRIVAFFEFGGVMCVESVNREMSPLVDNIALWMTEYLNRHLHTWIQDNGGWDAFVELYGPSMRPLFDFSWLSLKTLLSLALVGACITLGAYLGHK
Chain of MCL-1 (Q07820 whole entry, species assumed): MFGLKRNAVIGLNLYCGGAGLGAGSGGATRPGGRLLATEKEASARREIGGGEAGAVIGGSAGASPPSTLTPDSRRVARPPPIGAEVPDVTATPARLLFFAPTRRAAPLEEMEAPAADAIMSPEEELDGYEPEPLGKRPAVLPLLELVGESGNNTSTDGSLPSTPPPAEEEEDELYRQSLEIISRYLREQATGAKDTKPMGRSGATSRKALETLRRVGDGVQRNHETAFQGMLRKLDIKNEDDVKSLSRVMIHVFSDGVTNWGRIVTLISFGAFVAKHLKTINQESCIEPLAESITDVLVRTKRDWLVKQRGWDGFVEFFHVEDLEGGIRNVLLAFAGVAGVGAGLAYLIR
Chain of BCL-XL (Q07817 whole entry, species assumed): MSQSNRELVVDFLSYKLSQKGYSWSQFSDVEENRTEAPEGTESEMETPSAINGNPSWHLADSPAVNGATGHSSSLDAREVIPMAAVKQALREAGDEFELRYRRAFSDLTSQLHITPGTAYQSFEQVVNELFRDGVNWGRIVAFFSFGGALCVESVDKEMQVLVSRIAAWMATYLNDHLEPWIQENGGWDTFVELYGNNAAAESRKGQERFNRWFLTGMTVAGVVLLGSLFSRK

Row | SMILES | binding affinity to BCL-2 [1] | binding affinity to BCL-XL [2] | inhibition of MCL-1 [3] | binding affinity to BCL-W [4] | selectivity of apoptosis induction in MCL-1 addicted cancer cell line over BCL-2 or BCL-XL addicted cancer cell lines [5] | induction of apoptosis ([6]; 1 µM of compound) | induction of apoptosis ([6]; 1 μM of compound) | induction of apoptosis ([7]; 1 µM of compound) | induction of apoptosis ([7]; 1 μM of compound) | EC50 ([7]; Homo sapiens, NCI-H23, FIG. 1A, read-out: EC50 of inducing apoptosis) [nM]
1 | CC1(C)CCC(c2ccc(Cl)cc2)=C(CN2CCN(c3ccc(C(=O)NS(=O)(=O)c4ccc(N[C@H](CCN5CCOCC5)CSc5ccccc5)c(S(=O)(=O)C(F)(F)F)c4)cc3)CC2)C1 [ABT-263] | high affinity | high affinity | do not inhibit | high affinity | – | – | – | – | – | –
2 | CN(C)CC[C@H](CSc1ccccc1)Nc1ccc(S(=O)(=O)NC(=O)c2ccc(N3CCN(Cc4ccccc4-c4ccc(Cl)cc4)CC3)cc2)cc1[N+](=O)[O-] [ABT-737, (R)-4-(4-((4′-chloro-[1,1′-biphenyl]-2-yl)methyl)piperazin-1-yl)-N-((4-((−4-(dimethylamino)-1-(phenylthio)butan-2-yl)amino)-3-nitrophenyl)sulfonyl)benzamide] | high affinity | high affinity | do not inhibit | high affinity | – | – | – | – | – | –
3 | CCOC(=O)c1c(C)oc2cc(Br)c(NS(=O)(=O)c3ccc(OC)cc3)cc12 [Compound 1] | – | – | – | – | selectively induce apoptosis | robust apoptosis | robust apoptosis | robust apoptosis | robust apoptosis | 600
